From patent EP4793277A1, “CARBOXYLIC ACID COMPOUND AND PREPARATION METHOD THEREFOR AND USE THEREOF” (Nutshell Therapeutics (Shanghai) Co., Ltd., priority 2023, dated 2025)
Read-outs that look alike come from different tables or passages of the source.

Legend:
CYP3A4/5 [1] = experiment: Multi-concentration inhibitory activity curve of CYP3A4/5 enzymes (liver microsomes); format: in vitro ADME; settings: human liver microsomes
Procedure: • 1. Experimental purpose: To determine the concentration inhibitory activity curve of compounds on CYP3A4/5 enzymes. • 2. Experimental instrument and materials:
(§1) The mixture was added with HCl to adjust the pH to 7.4 and brought to a final volume of 1000 mL with water.
Liver microsomes were thawed in a water bath at 37°C prior to use. […] A 5 mM NADPH working solution was prepared in phosphate-buffered saline. […] The above stock solution was diluted with acetonitrile (4-fold dilution, 6 non-zero concentrations).
(§2) 300 µL of the supernatant was aliquoted for further LC-MS/MS analysis.
The half-maximal inhibitory concentration (IC50) was calculated using Graph Pad Prism. Table 3: Inhibitory activity of compounds on CYP3A4/5 enzymes

NUGC-3 cells = experiment: Anti-proliferation effect on NUGC-3 cells (Cell Counting Kit-8); format: cell-based; settings: Homo sapiens, NUGC-3, 120 h, 5 days of treatment
Procedure: Cell line NUGC-3 (JCRB, JCRB0822) was cultured in RPMI 1640 medium (Invitrogen, 11875-085) supplemented with 10% (v/v) fetal bovine serum (BI, 04-002-1A), according to the standard instructions of the American Type Culture Collection. The cell line was authenticated by short tandem repeat profiling.
In the proliferation assay, 1000 NUGC-3 cells were seeded in a 96-well flat clear bottom, TC-treated plate (Corning, 3903) in 200 µL of medium per well, and allowed to recover overnight in culture medium. Compounds were added with increasing concentration, with DMSO treatment serving as a […]. After 5 days of treatment, the plate was equilibrated to room temperature for 30 minutes, and the number of living cells was measured by the addition of the Cell Counting Kit-8 reagent (MCE, HY-K0301). Absorbance was measured on an EnSpire microplate reader (PerkinElmer). The relative viability of each group was presented as the percentage change relative to the […] group and then fit to a four-parameter logit non-linear curve using the program XLFit (IDBS). Table 2: Anti-proliferation activity of compounds on NUGC-3 cells

p53 Y220C mutant = biological target: T1, p53 Y220C mutant (Homo sapiens, UniProt P04637, Y220C); experiment: HTRF assay: compounds promoting the binding of p53 Y220C mutant with DNA; format: biochemical; settings: HTRF/FRET; His-tagged p53 Y220C (94-312) with biotin-labeled DNA; incubated overnight
T1 construct: Recombinant His-tagged p53 Y220C (94-312) used for HTRF assays was expressed in E. coli; made in house; host or cells: E. coli
Procedure: Homogeneous time-resolved fluorescence (HTRF) assay was used to measure the reactivation effect of compounds on the p53 Y220C mutant. Recombinant His-tagged p53 Y220C (94-312) used for HTRF assays was expressed in E. coli and purified to 90% purity using a Ni-NTA column. The biotin-labeled DNA used for HTRF assays was synthesized by Pharmaron Inc, with the specific sequence of 5'-[…]-3'.
The binding of recombinant His-tagged p53 Y220C protein with biotin-labeled DNA was measured using fluorescence resonance energy transfer (FRET). For FRET assays, the binding between the p53 mutant and the DNA sequences was measured by detecting the fluorescence of the interaction between Eu-conjugated anti-His antibody (Cisbio, 61HI2KLA) and d2-conjugated streptavidin (Cisbio, 610SADLF) bound to a biotin-labeled DNA molecule. Compounds were prepared as 2 mM stock solutions and serially diluted 1:3 in DMSO to obtain 10 concentrations. Each compound at 200× working concentration was sequentially diluted to 4× working concentration. 4 µL of compound solution was transferred row-by-row to a 384-well assay plate using Echo, with 2 replicates per column. Subsequently, 4 µL of p53 solution was added to the assay plate, followed by 4 µL of biotinylated DNA solution, and then 4 µL of assay solution (His-Eu antibody and streptavidin-d2) was added to each well. The assay plate was incubated overnight in the dark. Fluorescence was read on a BMG microplate reader (BMG LABTECH).
The ratio for each well was calculated (ratio_665 nm/615 nm - ratio_background). The activity (%) was calculated as follows: C = (Ave_Ac−Ave_Ba)/(Ave_Dc−Ave_Bd) [formula] R data = (A−Ave_Ba−C×D)/(D−Ave_Bd) × (Ave_Dc−Ave_Bd) [formula] Activity (%) = R data/Ave_VC × 100. [formula] • A: fluorescence intensity of the sample at 665 nm; • D: fluorescence intensity of the sample at 615 nm; • Ba: fluorescence intensity of the plate background at 665 nm; • Bd: fluorescence intensity of the plate background at 615 nm; • Dc: fluorescence intensity of HIS-Eu background at 615 nm; • Ac: fluorescence intensity of streptavidin-d2 background at 665 nm; • VC: DMSO treatment group.
SC150 was calculated using GraphPad 8.0 to fit the logarithm of activity (%) versus compound concentration to a nonlinear regression (dose response-variable slope). Table 1: Activity of compounds promoting the binding of p53 Y220C mutant with DNA

CYP2D6 = biological target: T2, CYP2D6 (Homo sapiens, UniProt P10635); experiment: Inhibitory activity on CYP isoenzymes at a single concentration (liver microsomes); format: in vitro ADME; settings: pH 7.4, probe dextromethorphan, Final compound concentration: 10 µM, substrate Dextromethorphan, read-out: Inhibition rate (%) CYP2D6
T2 construct: Liver microsomes were thawed in a water bath at 37°C prior to use; from tissue; host or cells: liver microsomes
Procedure: (§3) • 1. […] Experimental instrument and reagents: [table] […] The mixture was added with HCl to adjust the pH to 7.4 and brought to a final volume of 1000 mL with water. […] [table] [table] Liver microsomes were thawed in a water bath at 37°C prior to use. […] A 5 mM NADPH working solution was prepared in phosphate-buffered saline. […] 300 µL of the supernatant was aliquoted for further LC-MS/MS analysis. […] Table 3: Inhibitory activity of compounds on CYP isoenzymes*

CYP2C9 = biological target: T3, CYP2C9 (Homo sapiens, UniProt P11712); experiment: as above; format: in vitro ADME; settings: pH 7.4, probe diclofenac, Final compound concentration: 10 µM, substrate Diclofenac, read-out: Inhibition rate (%) CYP2C9
T3 construct: Liver microsomes were thawed in a water bath at 37°C prior to use; from tissue; host or cells: liver microsomes
Procedure: as §3

CYP1A2 = biological target: T4, CYP1A2 (Homo sapiens, UniProt P05177); experiment: as above; format: in vitro ADME; settings: pH 7.4, probe phenacetin, Final compound concentration: 10 µM, substrate Phenacetin, read-out: Inhibition rate (%) CYP1A2
T4 construct: from tissue; host or cells: liver microsomes
T4 sequence (P05177 1-516): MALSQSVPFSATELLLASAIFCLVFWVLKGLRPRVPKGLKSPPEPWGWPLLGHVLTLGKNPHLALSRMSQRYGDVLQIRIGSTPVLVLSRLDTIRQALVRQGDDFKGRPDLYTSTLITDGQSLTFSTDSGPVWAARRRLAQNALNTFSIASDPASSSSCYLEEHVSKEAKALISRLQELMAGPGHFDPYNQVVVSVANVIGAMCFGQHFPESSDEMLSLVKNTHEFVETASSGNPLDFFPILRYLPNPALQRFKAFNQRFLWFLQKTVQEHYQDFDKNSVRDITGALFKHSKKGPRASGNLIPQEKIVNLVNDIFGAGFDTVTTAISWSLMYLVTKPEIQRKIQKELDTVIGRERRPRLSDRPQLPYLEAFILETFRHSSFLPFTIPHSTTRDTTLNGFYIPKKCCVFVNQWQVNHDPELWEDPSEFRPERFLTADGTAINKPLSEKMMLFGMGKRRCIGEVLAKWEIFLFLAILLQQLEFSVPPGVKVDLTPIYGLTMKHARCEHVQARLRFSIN
Procedure: as §3

CYP2C19 = biological target: T5, CYP2C19 (Homo sapiens, UniProt P33261); experiment: as above; format: in vitro ADME; settings: pH 7.4, probe mephenytoin, Final compound concentration: 10 µM, substrate Mephenytoin, read-out: Inhibition rate (%) CYP2C19
T5 construct: Liver microsomes were thawed in a water bath at 37°C prior to use; from tissue; host or cells: liver microsomes
Procedure: as §3

CYP3A4/5 [2] = experiment: as above; format: in vitro ADME; settings: Final compound concentration: 10 µM, human liver microsomes
Procedure: • 1. […] Experimental instrument and reagents:
as §1
Liver microsomes were thawed in a water bath at 37°C prior to use. […] A 5 mM NADPH working solution was prepared in phosphate-buffered saline.
as §2
Table 3: Inhibitory activity of compounds on CYP isoenzymes*

hERG potassium channel = biological target: T6, hERG potassium channel (Homo sapiens, UniProt Q12809); experiment: Manual patch-clamp test of the inhibitory activity on hERG potassium channel; format: cell-based; settings: HEK293 cell line stably expressing the hERG ion channel, five concentrations 0.37 to 30 µM, n = 2
T6 construct: host or cells: HEK293
Procedure: This experiment was conducted to evaluate the effect of compounds in five concentrations on hERG channel current, obtaining a dose-effect curve and calculating the IC50.
Cell line and cell culture: HEK293 cell line stably expressing the hERG ion channel (Cat. No.: K1236) was purchased from Invitrogen. The cell line was cultured in medium containing 85% DMEM, 10% dialyzed fetal bovine serum, 0.1 mM non-essential amino acid solution, 100 U/mL penicillin-streptomycin solution, 25 mM HEPES, 5 µg/mL blasticidin, and 400 µg/mL geneticin. When the cell density grew to 40% to 80% of the bottom area of the culture dish, the cells were digested with trypsin and passaged three times per week. Prior to the experiment, the cells were cultured at a density of 5 × 10^5 cells per 3.5 cm culture dish, induced with 1 µg/mL doxycycline for 48 hours, followed by digestion, and seeded onto glass slides for subsequent manual patch-clamp experiments.
Solution preparation: Extracellular fluid (in mM): 132 sodium chloride, 4 potassium chloride, 3 calcium chloride, 0.5 magnesium chloride, 11.1 glucose, and 10 HEPES (pH adjusted to 7.35 with sodium hydroxide). Intracellular fluid (in mM): 10 EGTA, 10 HEPES, 10 potassium chloride, 10 sodium chloride, and 110 potassium fluoride (pH adjusted to 7.2 with potassium hydroxide). Osmolality of the solutions was controlled between 280 and 300 mOsmol/kg. The solutions were filtered and stored at 4°C prior to use.
Preparation of test compound solutions: Following the standard operating procedures, test compounds were dissolved in DMSO and prepared into a stock solution with a final concentration of 10 mM. The stock solution was serially diluted 1:3 in DMSO as the solvent to obtain three intermediate solutions with concentrations of 3.33, 1.11, and 0.37 mM. Prior to the experiment, the test compound intermediate solutions were further diluted 1:1000 with extracellular fluid to prepare a series of working solutions. […]

[3] = pH 7.4, probe midazolam, midazolam as substrate
[4] = pH 7.4, probe midazolam, substrate Midazolam, read-out: Inhibition rate (%) CYP3A4/5 (Midazolam)
[5] = pH 7.4, probe testosterone, testosterone as substrate
[6] = pH 7.4, probe testosterone, substrate Testosterone, read-out: Inhibition rate (%) CYP3A4/5 (Testosterone)

T2 sequence (P10635 whole entry): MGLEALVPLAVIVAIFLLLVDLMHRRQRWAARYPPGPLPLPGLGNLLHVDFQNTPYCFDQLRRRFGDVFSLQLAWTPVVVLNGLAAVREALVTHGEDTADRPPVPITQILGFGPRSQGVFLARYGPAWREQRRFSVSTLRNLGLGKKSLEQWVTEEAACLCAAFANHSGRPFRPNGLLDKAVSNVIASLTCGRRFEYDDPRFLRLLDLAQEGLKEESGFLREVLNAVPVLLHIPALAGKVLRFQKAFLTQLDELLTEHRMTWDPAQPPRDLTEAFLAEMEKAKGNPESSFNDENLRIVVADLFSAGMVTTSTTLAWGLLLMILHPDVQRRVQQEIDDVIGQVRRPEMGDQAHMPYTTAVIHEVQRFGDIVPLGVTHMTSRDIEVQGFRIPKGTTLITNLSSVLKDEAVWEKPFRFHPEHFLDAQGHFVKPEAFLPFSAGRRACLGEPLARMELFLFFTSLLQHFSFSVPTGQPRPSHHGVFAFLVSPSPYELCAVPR
T3 sequence (P11712 whole entry): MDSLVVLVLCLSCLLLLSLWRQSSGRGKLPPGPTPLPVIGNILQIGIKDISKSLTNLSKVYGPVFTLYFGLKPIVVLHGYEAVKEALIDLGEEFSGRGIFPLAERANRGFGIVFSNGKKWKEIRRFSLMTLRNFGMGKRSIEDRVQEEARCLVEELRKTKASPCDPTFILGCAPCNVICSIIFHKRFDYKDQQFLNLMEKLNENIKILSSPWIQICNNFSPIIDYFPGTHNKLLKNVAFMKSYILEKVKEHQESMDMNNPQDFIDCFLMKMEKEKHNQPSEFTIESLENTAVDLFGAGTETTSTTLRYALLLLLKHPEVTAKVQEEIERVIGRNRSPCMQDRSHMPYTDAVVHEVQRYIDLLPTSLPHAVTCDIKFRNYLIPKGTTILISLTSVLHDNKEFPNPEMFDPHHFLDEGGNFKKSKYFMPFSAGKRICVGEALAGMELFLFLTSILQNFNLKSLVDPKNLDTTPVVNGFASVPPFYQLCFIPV
T5 sequence (P33261 whole entry): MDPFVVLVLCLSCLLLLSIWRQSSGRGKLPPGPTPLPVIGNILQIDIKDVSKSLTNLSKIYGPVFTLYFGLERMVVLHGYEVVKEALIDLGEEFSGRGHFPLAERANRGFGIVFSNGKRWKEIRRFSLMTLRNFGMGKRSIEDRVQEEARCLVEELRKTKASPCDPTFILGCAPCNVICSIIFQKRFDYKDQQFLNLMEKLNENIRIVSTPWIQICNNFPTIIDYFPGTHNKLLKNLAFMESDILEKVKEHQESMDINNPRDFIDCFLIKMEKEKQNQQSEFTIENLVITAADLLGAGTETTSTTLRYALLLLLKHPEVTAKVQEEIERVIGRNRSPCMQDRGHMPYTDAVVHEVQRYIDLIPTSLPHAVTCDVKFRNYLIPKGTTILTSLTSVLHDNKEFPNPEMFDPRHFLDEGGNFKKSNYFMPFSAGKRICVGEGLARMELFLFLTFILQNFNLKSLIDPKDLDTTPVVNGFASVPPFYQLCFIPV
T6 sequence (Q12809 whole entry): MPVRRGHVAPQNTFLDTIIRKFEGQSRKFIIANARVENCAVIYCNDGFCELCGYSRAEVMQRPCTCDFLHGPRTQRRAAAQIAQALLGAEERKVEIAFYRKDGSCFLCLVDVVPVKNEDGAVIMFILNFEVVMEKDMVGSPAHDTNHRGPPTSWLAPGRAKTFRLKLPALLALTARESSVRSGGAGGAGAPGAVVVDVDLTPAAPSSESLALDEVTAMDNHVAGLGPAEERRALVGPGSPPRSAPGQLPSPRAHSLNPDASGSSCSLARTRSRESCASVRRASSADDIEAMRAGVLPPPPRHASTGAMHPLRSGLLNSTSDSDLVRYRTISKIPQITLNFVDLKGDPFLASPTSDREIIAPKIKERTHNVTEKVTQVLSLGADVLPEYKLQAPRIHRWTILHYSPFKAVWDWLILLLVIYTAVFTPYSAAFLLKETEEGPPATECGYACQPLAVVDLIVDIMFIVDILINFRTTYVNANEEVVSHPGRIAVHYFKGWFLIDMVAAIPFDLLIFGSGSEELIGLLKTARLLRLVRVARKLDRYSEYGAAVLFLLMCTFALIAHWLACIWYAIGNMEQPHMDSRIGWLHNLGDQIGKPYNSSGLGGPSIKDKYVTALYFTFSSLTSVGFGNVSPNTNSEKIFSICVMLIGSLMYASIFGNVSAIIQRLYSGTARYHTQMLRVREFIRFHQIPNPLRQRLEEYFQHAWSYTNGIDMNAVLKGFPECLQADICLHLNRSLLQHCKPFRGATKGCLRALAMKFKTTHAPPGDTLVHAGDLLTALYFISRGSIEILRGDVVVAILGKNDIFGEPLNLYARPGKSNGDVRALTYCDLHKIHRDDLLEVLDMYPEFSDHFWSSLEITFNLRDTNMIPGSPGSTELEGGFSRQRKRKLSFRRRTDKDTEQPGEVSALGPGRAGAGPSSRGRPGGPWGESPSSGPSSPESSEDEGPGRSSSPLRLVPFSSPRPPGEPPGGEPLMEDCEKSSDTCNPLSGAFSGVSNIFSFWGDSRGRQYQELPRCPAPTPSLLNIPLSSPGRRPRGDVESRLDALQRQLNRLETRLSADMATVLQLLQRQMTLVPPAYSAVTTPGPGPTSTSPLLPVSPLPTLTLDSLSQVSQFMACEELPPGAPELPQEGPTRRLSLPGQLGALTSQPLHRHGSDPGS

| SMILES | IC50 at 10 min (CYP3A4/5 [1]; [3]) | IC50 (NUGC-3 cells) | SC150 (p53 Y220C mutant) | inhibition at 10 min, 10 µM (CYP2D6) | inhibition at 10 min, 10 µM (CYP2C9) | inhibition at 10 min, 10 µM (CYP1A2) | inhibition at 10 min, 10 µM (CYP2C19) | inhibition at 10 min, 10 µM (CYP3A4/5 [2]; [4]) | IC50 at 10 min (CYP3A4/5 [1]; [5]) | IC50 (hERG potassium channel) | inhibition at 10 min, 10 µM (CYP3A4/5 [2]; [6]) |
| --- | --- | --- | --- | --- | --- | --- | --- | --- | --- | --- | --- |
| CNC(=O)c1ccc(NCC#Cc2cc3c(N[C@@H]4CCN(C)C[C@@H]4F)cccn3c2CC(F)(F)F)c(OC)c1 [Cpd-C, 4-((3-(8-(((3S,4R)-3-Fluoro-1-methylpiperidin-4-yl)amino)-3-(2,2,2-trifluoroethyl)indolizin-2-yl)prop-2-yn-1-yl)amino)-3-methoxy-N-methylbenzamide] | 3800 nM | 230 nM | 4.6 nM | 9.5% | 43% | 18% | 67% | 79% |  |  |  |
| CNC(=O)c1ccc(NCC#Cc2cc3c(N[C@@H]4CCN(C)C[C@@H]4F)cccc3n2CC(F)(F)F)c(OC)c1 [Cpd-A] | 2300 nM | 780 nM | 10 nM | 5.5% | 38% | 12% | 42% | 83% | 890 nM | 19000 nM |  |
| [2H]C([2H])([2H])Oc1nc(C(=O)O)ccc1NCC#Cc1cc2c(N[C@@H]3CCN(C)C[C@@H]3F)cccn2c1CC(F)(F)F [Cpd-1, 5-((3-(8-(((3S,4R)-3-Fluoro-1-methylpiperidin-4-yl)amino)-3-(2,2,2-trifluoroethyl)indolizin-2-yl)prop-2-yn-1-yl)amino)-6-(methoxy-d3)picolinic acid] | > 50000 nM | 100 nM | 0.4 nM | 2.6% | < 0% | 6.3% | 5.5% | 3.4% | > 50000 nM | > 30000 nM | < 0% |
| COc1nc(C(=O)O)ccc1NCC#Cc1cc2c(N[C@@H]3CCN(C)C[C@@H]3F)cccn2c1CC(F)(F)F [Cpd-2, 5-((3-(8-(((3S,4R)-3-Fluoro-1-methylpiperidin-4-yl)amino)-3-(2,2,2-trifluoroethyl)indolizin-2-yl)prop-2-yn-1-yl)amino)-6-methoxypicolinic acid] | > 50000 nM | 120 nM | 0.5 nM | 0.73% | < 0% | 1.2% | 1.9% | < 0% | > 50000 nM | > 30000 nM | 1.7% |
| COc1cc(S(C)(=O)=O)ccc1NCC#Cc1nc2c(N[C@@H]3CCN(C)C[C@@H]3F)cccn2c1CC(F)(F)F [Cpd-B] |  | 360 nM | 15 nM | 3.6% | 21% | 0.56% | 31% | 61% |  |  | 75% |
